Laboratory results published in US4130648A, “5-Fluorouracil derivatives and antitumor preparations containing the same” (Eisai Co., Ltd., priority 1976, dated 1978).
Where two headings read alike, the source gives them in different places.

Columns and labels:
[1] = tested on: L-1210 leukemia; assay: Survival effect, L-1210 leukemia; format: in vivo, mice (CDF1, female); details: for ILS % over controls / Mean survival days: 24 hours after implantation
Procedure: 3. Antitumor activity on L-1210 leukemia
10^5 cells of L-1210 leukemia were intraperitoneally implanted in CDF1 mice (female, 8-10 weeks old). […]
MCT was administered as control for Compound A.
Mean survival time after the implantation was determined, and the increase in life-span (ILS) over controls was calculated.

[2] = tested on: Sarcoma-180 (S-180); assay: Effect on growth of solid tumor by oral administration, S-180; format: in vivo, mice (ICR/JCL, female); details: for Tumor growth (weight : T/C %): 3 hours after implantation, 20 days after; for minimal effective dose: Mus musculus, 480 h, read-out: minimum effective dose
Procedure: (3) Effect on growth of solid tumor by oral administration
1.8 × 10^6 cells of S-180 were implanted subcutaneously in ICR/JCL mice (female, 6-8 weeks old).
Each of the drugs was orally administered as a solution of safflower oil 3 hours after the implantation.
Safflower oil was administered as control for each of the drugs.
Twenty days after, the tumor weight was measured, and the ratio of the tumor weight to that of the control group (T/C %) was calculated.

[3] = tested on: L-1210 leukemia; assay: Duration of antitumor activity, L-1210 leukemia; format: in vivo, mice (CDF1, female)
Description: (2) Duration of antitumor activity
10^5 cells of L-1210 leukemia were intraperitoneally implanted in the mice.
Survival days after the implantation were counted.

[4] = tested on: Sarcoma-180 (S-180); assay: Survival effect, S-180; format: in vivo, mice (ICR/JCL, female); details: for ILS (%) over control / Mean survival days: 24 hours after implantation
Procedure: 10^6 cells of S-180 were intraperitoneally implanted in ICR/JCL mouse (female, 6-8 weeks old).
Compound A was administered as a solution of soybean oil at 24 hours after the implantation.
Soybean oil was administered as control for Compound A.
Survival days after implantation was measured. The increase in life-span over control groups (ILS = T/C % - 100) was calculated.

[5] = tested on: Sarcoma-180 (S-180); assay: Inhibitory effect on the growth of S-180 ascites form (TPCV); format: in vivo, mice (ICR/JCL, female); details: for Tumor growth (TPCV : T/C %): i.p., 24 hours after implantation, day 10; for ED50: Mus musculus, ip, 240 h; for ED50 / safety index (LD50 /ED50): S-180 ascites form, from Tables 1 and 2
Procedure: 2. Antitumor activity against Sarcoma-180 (S-180)
(1) Inhibitory effect on the growth of S-180 ascites form (Intraperitoneal administration)
10^6 cells of S-180 were intraperitoneally implanted in ICR/JCL mice (female, 8-10 weeks old).
Compound A was administered as a solution of soybean oil and 5-FU was administered as saline solution, at 24 hours after the implantation.
Soybean oil was administered as control for the Compound A. Saline solution was administered as control for 5-FU.
Ten days after the implantation of the tumor cells, the total packed cell volumes (TPCV) were measured. The measurement of TPCV was carried out in accordance with Hoshi, A. et al., Chemical & Pharmaceutical Bulletion 17 (4), 848-850 (1969). The results are shown in Table 2, wherein T/C % means the ratio of the TPCV of the test groups to that of the control group.

[6] = tested on: CDF1 mice; assay: Acute toxicity, LD50 after three weeks observation; format: in vivo, female); details: from Table 1, compared with FT-207 and 5-FU
Description: (§1) LD50 (mg/Kg) after three weeks observation in CDF1 mice (female, 8-10 weeks old)

[7] = Acute toxicity, LD50 after three weeks observation; format: in vivo, mice (CDF1, female); details: mouse, in vivo, CDF1 mice, three weeks observation
Description: as §1

[8] = clinical background; cited from earlier work
[9] = ip, intraperitoneal administration
[10] = sc, subcutaneous administration

## O=c1[nH]c(=O)n(C2CCCO2)cc1F (stereo not drawn) [FT-207, reference compound]
[1]; 50 mg/Kg i.p. in saline
  ILS % over controls: 0%
  Mean survival days: 7.0 days
[1]; 200 mg/Kg i.p. in saline
  ILS % over controls: 1%
  Mean survival days: 7.1 days
[1]; dose of about 1/4 LD50
  effectiveness: it cannot be confirmed that FT-207 is effective
[2]; 25 mg/Kg oral
  Tumor growth (weight : T/C %): 148%
[2]; 50 mg/Kg oral
  Tumor growth (weight : T/C %): 269%
[2]; 100 mg/Kg oral
  Tumor growth (weight : T/C %): 58%
[2]; 200 mg/Kg oral
  Tumor growth (weight : T/C %): 43%
[2]; 400 mg/Kg oral
  Tumor growth (weight : T/C %): 34%
[2]; oral, S-180 solid tumor, from Table 4
  minimal effective dose: ~100 mg/kg
[3]; 200 mg/Kg i.p. in saline, 1 day before tumor implantation
  Mean survival days: 8.8 days
[3]; 200 mg/Kg i.p. in saline, 2 days before tumor implantation
  Mean survival days: 9.0 days
[3]; 200 mg/Kg i.p. in saline, 4 days before tumor implantation
  Mean survival days: 9.0 days

## Cc1c(C)c2c(c(C)c1OC(=O)n1cc(F)c(=O)[nH]c1=O)CCC(C)(CCCC(C)CCCC(C)CCCC(C)C)O2 (racemic) [Compound A, N1-d,l-α-tocopheryl carbonyl-5-fluorouracil]
[4]; 500 mg/Kg
  ILS (%) over control: 139.1%
  Mean survival days: 33.0 days
[4]; 1000 mg/Kg
  ILS (%) over control: 215.2%
  Mean survival days: 43.5 days
[4]; 2000 mg/Kg
  ILS (%) over control: 160.9%
  Mean survival days: 36.0 days
[4]; 4000 mg/Kg
  ILS (%) over control: 182.6%
  Mean survival days: 39.0 days
[4]; single administration of 1/8 LD50
  survival effect: marked effect
[1]; 125 mg/Kg i.p. in MCT
  ILS % over controls: 0%
  Mean survival days: 7.0 days
[1]; 250 mg/Kg i.p. in MCT
  ILS % over controls: 14%
  Mean survival days: 8.0 days
[1]; 500 mg/Kg i.p. in MCT
  ILS % over controls: 40%
  Mean survival days: 9.8 days
[1]; 1000 mg/Kg i.p. in MCT
  ILS % over controls: 73%
  Mean survival days: 12.1 days
[1]; 2000 mg/Kg i.p. in MCT
  ILS % over controls: 79%
  Mean survival days: 12.5 days
[1]; 4000 mg/Kg i.p. in MCT
  ILS % over controls: 93%
  Mean survival days: 13.5 days
[1]; compared with 5-FU
  availability: higher than that of 5-FU
  ratio of dose (corresponding ILS) to LD50, compared with 5-FU: smaller than that of 5-FU
[1]; dose of about 1/8 LD50
  effectiveness: effective
[2]; 62 mg/Kg oral
  Tumor growth (weight : T/C %): 106%
[2]; 125 mg/Kg oral
  Tumor growth (weight : T/C %): 87%
[2]; 250 mg/Kg oral
  Tumor growth (weight : T/C %): 33%
[2]; 500 mg/Kg oral
  Tumor growth (weight : T/C %): 47%
[2]; 1000 mg/Kg oral
  Tumor growth (weight : T/C %): 38%
[2]; 2000 mg/Kg oral
  Tumor growth (weight : T/C %): 36%
[2]; S-180, po
  minimal effective dose: ~250 mg/kg
[2]; compared with FT-207 and 5-FU
  availability: higher than those of the other two drugs
[2]; oral, S-180 solid tumor
  ratio of the minimum effective dose to toxic dose (LD50): less than 1/16
[3]; 1000 mg/Kg i.p. in MCT, 0 days before tumor implantation
  Mean survival days: 11.6 days
[3]; 1000 mg/Kg i.p. in MCT, 1 day before tumor implantation
  Mean survival days: 13.0 days
[3]; 1000 mg/Kg i.p. in MCT, 2 days before tumor implantation
  Mean survival days: 16.4 days
[3]; 1000 mg/Kg i.p. in MCT, 3 days before tumor implantation
  Mean survival days: 11.8 days
[3]; 1000 mg/Kg i.p. in MCT, 4 days before tumor implantation
  Mean survival days: 11.2 days
[3]; 1000 mg/Kg i.p. in MCT, 6 days before tumor implantation
  Mean survival days: 13.5 days
[3]; from Table 6
  duration of antitumor effects: 6 days
[3]; same day of implantation, or 1-6 days prior to the implantation
  survival effects: exhibits survival effects
[5]; 62 mg/Kg
  Tumor growth (TPCV : T/C %): 77.5%
[5]; 125 mg/Kg
  Tumor growth (TPCV : T/C %): 64.7%
[5]; 250 mg/Kg
  Tumor growth (TPCV : T/C %): 30.4%
[5]; 500 mg/Kg
  Tumor growth (TPCV : T/C %): 3.3%
[5]; 1000 mg/Kg
  Tumor growth (TPCV : T/C %): 0%
[5]; 2000 mg/Kg
  Tumor growth (TPCV : T/C %): 0%
[5]; 4000 mg/Kg
  Tumor growth (TPCV : T/C %): 0%
[5]
  ED50: ~170 mg/kg
  safety index (LD50 /ED50): more than 24
[5]; compared with 5-FU
  toxicity as an antitumor agent: less toxic
[6]
  acute toxicity: lower acute toxicity than FT-207 and 5-FU
[7]; [9]
  LD50 at 504 h: > 4000 mg/kg
[7]; [10]
  LD50 at 504 h: > 4000 mg/kg
[7]; oral administration
  LD50 at 504 h: > 4000 mg/kg

## O=c1[nH]cc(F)c(=O)[nH]1 [Example 5-FU, 5-fluorouracil]
[1]; 15 mg/Kg i.p. in saline
  ILS % over controls: 15%
  Mean survival days: 8.1 days
[1]; 30 mg/Kg i.p. in saline
  ILS % over controls: 25%
  Mean survival days: 8.8 days
[1]; 60 mg/Kg i.p. in saline
  ILS % over controls: 38%
  Mean survival days: 9.7 days
[2]; 10 mg/Kg oral
  Tumor growth (weight : T/C %): 156%
[2]; 20 mg/Kg oral
  Tumor growth (weight : T/C %): 55%
[2]; 40 mg/Kg oral
  Tumor growth (weight : T/C %): 52%
[2]; 80 mg/Kg oral
  Tumor growth (weight : T/C %): 63%
[2]; S-180, po
  minimal effective dose: ~20 mg/kg
[2]; oral, S-180 solid tumor
  ratio of the minimum effective dose to toxic dose (LD50): about 1/6
[3]; 50 mg/Kg i.p. in saline, 1 day before tumor implantation
  Mean survival days: 9.0 days
[3]; 50 mg/Kg i.p. in saline, 2 days before tumor implantation
  Mean survival days: 9.0 days
[3]; 50 mg/Kg i.p. in saline, 4 days before tumor implantation
  Mean survival days: 8.8 days
[8]
  toxicity at the effective dosage: relatively severe toxicity
[5]; 34 mg/Kg
  Tumor growth (TPCV : T/C %): 43.3%
[5]; 68 mg/Kg
  Tumor growth (TPCV : T/C %): 26.4%
[5]; 125 mg/Kg
  Tumor growth (TPCV : T/C %): 4.3%
[5]; 250 mg/Kg
  Tumor growth (TPCV : T/C %): died
[5]; 500 mg/Kg
  Tumor growth (TPCV : T/C %): died
[5]
  ED50: ~25 mg/kg
  safety index (LD50 /ED50): about 5
[7]; [9]
  LD50 at 504 h: 150 mg/kg
[7]; [10]
  LD50 at 504 h: 175 mg/kg
[7]; intravenous administration
  LD50 at 504 h: 135 mg/kg
[7]; oral administration
  LD50 at 504 h: 120 mg/kg
